Assay results: patent US20240307299A1, “SELF-EMULSIFYING DRUG DELIVERY (SEDDS) FOR OPHTHALMIC DRUG DELIVERY” (priority 2015, published 2024)
Where two headings read alike, the source gives them in different places.

System: New Zealand White female rabbits
Format: in vivo
Method: The ocular tolerability of the various pharmaceutical-grade excipients used in our formulations was evaluated in vivo using New Zealand White female rabbits. A total of ten test groups with three rabbits each were used to test the materials listed below in Table 16. Dosing in each group was done by instilling one drop of material at the lowest concentration into the left eye of the first rabbit. If not tolerated, dosing was stopped. If tolerated, one drop of the same concentration was instilled into the left eye of the second rabbit and then again for the third rabbit. If a concentration was tolerated by 3 rabbits, dosing continued in the same pattern with the next higher concentration, if applicable.
Sample compositions, specifically, the vehicle used to dilute the materials tested, are listed in the next table (Table 17).

## CC(O)CO (centres unmarked) [Propylene Glycol]
Lowest concentration not tolerated
  Concentration at which the not tolerated finding was seen: 10%
Topical ocular, rabbits
  Concentration not tolerated: 10%

## PEG 400
rabbit, in vivo
  Concentration at which the not tolerated finding was seen: 20%
  Maximum Tolerated Concentration: 10 % w/w
  Reason Not Tolerated: Ocular discomfort (score): +3, 1 Ocular discomfort seen at

## PEG (polyethylene glycol) 300 [PEG 300]
rabbit, in vivo
  Concentration at which the not tolerated finding was seen: 10%

## polyoxyethylene sorbitan monooleate [PS80]
rabbit, in vivo
  Concentration at which the not tolerated finding was seen: 40%
  Maximum Tolerated Concentration: 30 % w/w
